Assay [1] relates to Rattus norvegicus. The assay is described as follows: Antiinflammatory activity against rat assessed as inhibition of carrageenan-induced edema. Type of assay: functional. A general note: The carrageenan paw model is a standard test of acute inflammation.
Assay [2] has as its system Rattus norvegicus. The assay is described as follows: Antiinflammatory activity against rat assessed as inhibition of carrageenan-induced edema at 75 mg/kg. It is filed as functional.

As a reminder, the inhibition in vivo is the change of the read-out against control, counted positive when it falls.

SMILES strings stand for the structures. The source made the active and inactive calls. The calls are words filed in the database; no cut-off is given here.

As for `C[C@]12CCC(=O)C=C1CC[C@@H]1[C@@H]2[C@@H](O)C[C@@]2(C)[C@H]1CC[C@]2(O)C(=O)COP(=O)(O)O` [HYDROCORTISONE PHOSPHORIC ACID], the ED25 with Rattus norvegicus [1] was 13.5 mg/kg.

On to `C[C@@H]1O[C@@H](O[C@H]2[C@H](Oc3cc(O)c4c(c3)O[C@H](c3ccc(O)cc3)CC4=O)O[C@H](CO)[C@@H](O)[C@@H]2O)[C@H](O)[C@H](O)[C@H]1O`, for which the outcome in the assay on Rattus norvegicus [1] was inactive.

Take `COc1ccc(-c2cc(=O)c3c(O)cc(OC)cc3o2)cc1` [APIGENIN DIMETHYLETHER]: in the assay with Rattus norvegicus [1], the ED25 was 75 mg/kg. Further, the inhibition in vivo at 75 mg/kg in the assay on Rattus norvegicus [2] amounted to 25%.

As for `CCCCC1C(=O)N(c2ccccc2)N(c2ccccc2)C1=O` [PHENYLBUTAZONE], the inhibition in vivo at 75 mg/kg in the assay with Rattus norvegicus [2] was 81%.

For the compound `COc1ccc(-c2cc(=O)c3c(OC)c(OC)c(OC)c(OC)c3o2)cc1OC` [NOBILETIN], the ED25 with Rattus norvegicus [1] is 20 mg/kg.

The values above are taken from ChEMBL document CHEMBL1151637, “A flavone with antiinflammatory activity from the roots of Rhus undulata” (1984).
